{"source": "patent US6380245B1", "about": "“Antibiotics TKR1912-I and TKR1912-II and process for producing the same” (Takara Shuzo Co., Ltd., priority 1995, dated 2002)", "key": {"[1]": {"tested_on": "Aspergillus fumigatus TIMM1776", "assay": "Antifungal spectrum, liquid medium dilution method", "type": "cell-based", "method": "(§1) The antifungal spectra of the above TKR1912-I and TKR1912-II against various microorganisms were determined. Using the liquid medium dilution method, the concentration causing a substantially complete inhibition of fungal growth was determined as minimal inhibitory concentration (μg/ml). Moreover, the minimal concentration (μg/ml) causing partial growth inhibition was determined and the results are presented in parentheses in Table 2. In the table, YNBG stands for YNBG medium comprising 0.67% of yeast nitrogen base (Difco) and 1.0% of glucose and BHI stands for BHI medium comprising brain-heart infusion bouillon (Nissui Pharmaceutical)."}, "[2]": {"tested_on": "Candida albicans TIMM0136", "assay": "Antifungal spectrum, liquid medium dilution method", "type": "cell-based", "method": "as §1"}, "[3]": {"tested_on": "Candida kefyr TIMM0301", "assay": "Antifungal spectrum, liquid medium dilution method", "type": "cell-based", "conditions": "for MIC: Kluyveromyces marxianus", "method": "as §1"}, "[4]": {"tested_on": "Cryptococcus neoformans TIMM0354", "assay": "Antifungal spectrum, liquid medium dilution method", "type": "cell-based", "method": "as §1"}, "[5]": {"tested_on": "ICR mice", "assay": "Toxicity after intraperitoneal administration to ICR mice", "type": "in vivo", "conditions": "50 mg/kg"}, "[6]": {"assay": "Solubility in solvents", "type": "physicochemical"}, "[7]": {"conditions": "Aspergillus fumigatus TIMM1776, BHI medium"}, "[8]": {"conditions": "Candida albicans TIMM0136, YNBG medium"}, "[9]": {"conditions": "Candida kefyr TIMM0301, YNBG medium"}}, "note": "Where two headings read alike, the source gives them in different places.", "data": [{"smiles": "CCCCCCCC/C=C/CC/C=C/C1CC(C(=O)O)C(CC(=O)O)(C(=O)OC(C(=O)O)C(CC(=O)O)C(=O)O)O1", "note": "(stereo not drawn) [TKR1912-II]", "values": [{"measurement": "minimal concentration causing partial growth inhibition (in parentheses)", "setting": "[1]; [7]", "value": "(25) μg/ml"}, {"measurement": "MIC", "setting": "[1]; Aspergillus fumigatus, TIMM1776, read-out: Minimal inhibitory concentration (substantially complete inhibition of fungal growth)", "value": "> 100", "unit": "µg/mL"}, {"measurement": "minimal concentration causing partial growth inhibition (in parentheses)", "setting": "[2]; [8]", "value": "(0.78) μg/ml"}, {"measurement": "MIC", "setting": "[2]; Candida albicans, TIMM0136, read-out: Minimal inhibitory concentration (substantially complete inhibition of fungal growth)", "value": 3.13, "unit": "µg/mL"}, {"measurement": "minimal concentration causing partial growth inhibition (in parentheses)", "setting": "[3]; [9]", "value": "(1.56) μg/ml"}, {"measurement": "MIC", "setting": "[3]; TIMM0301, read-out: Minimal inhibitory concentration (substantially complete inhibition of fungal growth)", "value": 3.13, "unit": "µg/mL"}, {"measurement": "minimal concentration causing partial growth inhibition (in parentheses)", "setting": "[4]; Cryptococcus neoformans TIMM0354, YNBG medium", "value": "(6.25) μg/ml"}, {"measurement": "MIC", "setting": "[4]; Cryptococcus neoformans, TIMM0354, read-out: Minimal inhibitory concentration (substantially complete inhibition of fungal growth)", "value": "> 100", "unit": "µg/mL"}, {"measurement": "toxic signs", "setting": "[5]", "value": "no toxic signs"}, {"measurement": "solubility in hexane", "setting": "[6]", "value": "practically insoluble"}, {"measurement": "solubility in methanol, chloroform, and water", "setting": "[6]", "value": "soluble"}]}, {"smiles": "CCCCCCCCCC/C=C/C1CC(C(=O)O)C(CC(=O)O)(C(=O)OC(C(=O)O)C(CC(=O)O)C(=O)O)O1", "note": "(stereo not drawn) [TKR1912-I]", "values": [{"measurement": "minimal concentration causing partial growth inhibition (in parentheses)", "setting": "[1]; [7]", "value": "(100) μg/ml"}, {"measurement": "MIC", "setting": "[1]; Aspergillus fumigatus TIMM1776, BHI medium, read-out: Minimal inhibitory concentration (substantially complete inhibition of fungal growth)", "value": "> 100", "unit": "µg/mL"}, {"measurement": "minimal concentration causing partial growth inhibition (in parentheses)", "setting": "[2]; [8]", "value": "(1.56) μg/ml"}, {"measurement": "MIC", "setting": "[2]; Candida albicans TIMM0136, YNBG medium, read-out: Minimal inhibitory concentration (substantially complete inhibition of fungal growth)", "value": 3.13, "unit": "µg/mL"}, {"measurement": "minimal concentration causing partial growth inhibition (in parentheses)", "setting": "[3]; [9]", "value": "(6.25) μg/ml"}, {"measurement": "MIC", "setting": "[3]; Candida kefyr TIMM0301, YNBG medium, read-out: Minimal inhibitory concentration (substantially complete inhibition of fungal growth)", "value": 12.5, "unit": "µg/mL"}, {"measurement": "MIC", "setting": "[4]; Cryptococcus neoformans TIMM0354, YNBG medium, read-out: Minimal inhibitory concentration (substantially complete inhibition of fungal growth)", "value": 6.25, "unit": "µg/mL"}, {"measurement": "toxic signs", "setting": "[5]", "value": "no toxic signs"}, {"measurement": "solubility in hexane", "setting": "[6]", "value": "practically insoluble"}, {"measurement": "solubility in methanol, chloroform, and water", "setting": "[6]", "value": "soluble"}]}]}
